US20040167217A1, “Neuroprotective effects of polyphenolic compounds” (priority 2003, published 2004)

Legend:
Type in all cases: cell-based, rat
[1] = system: cortical neurons; assay: Glucose oxidase (GOX)-mediated cellular injury, Alamar blue cell viability
Procedure: To better assess the neuroprotective activity of curcumin, cell viability was determined for cortical neurons treated with 25 μM curcumin for 12 h followed by incubation for 2 h in the presence of glucose oxidase (100 mU/ml). This oxidant system generates hydrogen peroxide at a constant rate and is known to promote cellular injury in vitro^14. After treatment with glucose oxidase, cells were washed and exposed to complete medium containing 1% Alamar blue for 5 h according to manufacturers' instruction (Serotec, UK), in order to assess cell viability. After the 2 h incubation period, optical density in the medium of each well was measured using a plate reader (Molecular Devices; Crawley, UK). The assay is based on detection of metabolic activity of living cells using a redox indicator, which changes from oxidized (blue) to reduced (red) form. The intensity of the red color is proportional to the viability of cells, which is calculated as a difference in absorbance between 570 nm and 600 nm and expressed as a percentage of control. […] However, exposure of cells for 24 h to curcumin 25 μM reduced glucose oxidase-mediated damage and restored cell viability to 70% of control.
An inhibitor of HO-1 activity may be used to determine whether or not the effects of the polyphenolic compounds or analogs thereof are induced through the heme oxygenase signaling pathway. To understand the relevance of the induction of the stress protein HO-1 on the neuroprotective effects afforded by curcumin we treated cortical neuron exposed to β-amyloid with curcumin ([…]) alone or in the presence of tinprotoporphirine IX (SnPP) 40 μM, a specific inhibitor of HO-1 activity. The same treatment was performed in cortical neurons exposed to GOX-induced cellular damage.

[2] = system: heme oxygenase; assay: Heme oxygenase activity assay in cortical neurons
Procedure: The ability of curcumin to interact with the heme oxygenase (HO) pathway in primary cortical neurons was tested. Cells were exposed to various concentrations of curcumin (1-100 μM) and heme oxygenase activity. HO-1 mRNA and protein expression were determined at different times after treatment. N-acetyl cysteine (NAC; 1 mM), a precursor of glutathione and a sulphydril donor with potent anti-oxidant properties, was also used to examine whether changes in heme oxygenase activity by curcumin are mediated by pro-oxidant mechanisms. Heme oxygenase activity assays were performed using a modified methodology previously described by […], et al.^15 Cells were washed with PBS, scraped off their plates, separated by centrifugation, and resuspended in a solution containing 100 mM PBS and 2mM MgCl2, freeze/thawed three times, and finally sonicated. The supernatant was added to a reaction mixture containing nicotinamide adenine dinucleotide phosphate (NADPH) (0.8 mM), glucose 6-phosphate (2 mM), glucose-6-phosphate dehydrogenase (0.2 units), 3 mg of rat liver cytosol prepared from a 105,000×g supernatant fraction as a source of biliverdin reductase, potassium phosphate buffer (PBS, 100 mM, pH 7.4), MgCl2 (0.2 mM), and hemin (20 μM). The reaction was conducted at 37° C. in the dark for 1 h and terminated by the addition of 1 ml of chloroform. The amount of extracted bilirubin was calculated by the difference in absorbance between 464 nm and 530 nm (ε=40 mM^-1 cm^-1). Heme oxygenase activity was expressed as picomoles of bilirubin/mg of cell protein/h. The total protein content of confluent cells was determined using a Bio-Rad DC protein assay (Bio-Rad; Herts, UK) by comparison with a standard curve obtained with bovine serum albumin.

[3] = system: HO-1 mRNA; assay: HO-1 mRNA expression, semi-quantitative RT-PCR, cortical neurons
Procedure: A semi-quantitative RT-PCR was performed to investigate the activity of curcumin on HO-1 mRNA expression, using specific HO-1 primers (FIG. 8) that generated a 123 bp product. […] The HO-2 primers generated a 331-bp PCR product. […] In order to test the effects of polyphenolic compounds, or analogs thereof, on heme oxygenase activity, curcumin and CAPE were added to cortical neurons for analysis. Heme oxygenase activities resulting from curcumin and CAPE treatment are shown in FIGS. 7A and 9A, respectively. Neuroprotective protein expression is observed in FIGS. 7B-C and 9B. The activity of curcumin on HO-1 mRNA expression may be measured to ensure that heme oxygenase activity correlates with mRNA expression (FIG. 8). Semi-quantitative reverse transcriptase-polymerase chain reaction using HO-1 and HO-2 (control) forward and reverse primers are as follows: […]

`COc1cc(C=CC(=O)CC(=O)C=Cc2ccc(O)c(OC)c2)ccc1O` [curcumin, 1,7-bis[4-Hydroxy-3-methoxyphenyl]-1,6-heptadiene-3,5-dione] was tested, and the “cell viability after glucose oxidase” value ([1]; 25 μM, then glucose oxidase 100 mU/ml for 2 h) was 70 % of control, the “cell viability, GOX-induced cellular damage (in words)” value ([1]; curcumin alone) was “able to overcome the apoptotic effects of GOX alone” and the “cell viability, GOX-induced cellular damage in the presence of SnPP” value ([1]; curcumin plus SnPP 40 μM) was “only partially in combination with SnPP”. The “maximal heme oxygenase activity, increase over control” value ([2]; 25 μM, 6h) was 10 fold, the heme oxygenase activity ([2]; 50 μM) was “gradually decreased to those of control values” and the heme oxygenase activity ([2]; 1-50 μM, 6h) was “concentration-dependent increase in heme oxygenase activity”. For the same molecule, the “dose-dependent induction of heme oxygenase activity” value ([2]; 24h exposure) was “maintained after 24h exposure” and the “HO-1 mRNA expression” value [3] was “dose-dependent over-expression of HO-1 mRNA”.
